Data on 20 compounds can be found in US10239849B2 (Merck Sharp & Dohme Corp., priority 2015, dated 2019).

pEC50: −log10 of the molar value.

The target of assay [1] is T1, glutathione-S-transferase (GST) tagged LXRalpha LBD (ligand binding domain) (Homo sapiens, UniProt Q13133).
T1 construct: purchased Invitrogen pv4655
T1 sequence (Q13133 209-447 limits assumed): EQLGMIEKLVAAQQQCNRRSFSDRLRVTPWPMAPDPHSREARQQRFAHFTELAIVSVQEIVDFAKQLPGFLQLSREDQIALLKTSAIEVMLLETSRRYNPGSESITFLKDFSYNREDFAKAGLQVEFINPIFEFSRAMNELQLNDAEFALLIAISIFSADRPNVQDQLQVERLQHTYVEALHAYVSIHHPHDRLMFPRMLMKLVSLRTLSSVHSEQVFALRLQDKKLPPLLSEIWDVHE
Briefly: LanthaScreen TR-FRET Liver X Receptor Coactivator Assay, LXR alpha-LBD. Format: biochemical. The note with it: for Emax: efficacy in relation to reference dual agonist T1317, read-out: LXR alpha activity at max dose (%) (Emax); for pEC50 / LXR alpha IP (nM): potency (Inflection Point) of co-activator recruitment, TR-FRET; for pEC50: read-out: LXR alpha IP. The procedure: (§1) While running the LanthaScreen™ TR-FRET Liver X Receptor Coactivator Assay, LXR alpha-LBD or LXR beta-LBD was added to ligand test compounds followed by addition of a mixture of a fluorescein-labelled coactivator peptide and terbium-conjugated anti-GST antibody. After an incubation period at room temperature, TR-FRET (time-resolved fluorescence resonance energy transfer) was measured using a filter-based instrument capable of TR-FRET, e.g. PerkinElmer Envision.
In general terms: In TR-FRET formats the signal depends on donor and acceptor labels being close together.

The target in assay [2] is T2, glutathione-S-transferase (GST) tagged LXRbeta LBD (ligand binding domain) (Homo sapiens, UniProt P55055).
T2 construct: purchased Invitrogen pv4658.pps
T2 sequence (P55055 222-460 limits assumed): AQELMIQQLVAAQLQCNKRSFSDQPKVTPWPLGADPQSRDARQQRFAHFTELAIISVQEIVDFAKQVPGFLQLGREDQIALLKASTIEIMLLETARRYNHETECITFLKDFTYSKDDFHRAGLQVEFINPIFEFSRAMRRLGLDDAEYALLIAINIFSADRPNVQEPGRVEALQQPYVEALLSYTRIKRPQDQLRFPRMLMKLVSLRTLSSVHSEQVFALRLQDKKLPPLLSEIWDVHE
The experiment in a line: LanthaScreen TR-FRET Liver X Receptor Coactivator Assay, LXR beta-LBD. Format: biochemical. The note with it: for Emax: efficacy in relation to reference dual agonist T1317, read-out: LXR beta activity at max dose (%) (Emax); for pEC50: potency (Inflection Point) of co-activator recruitment, TR-FRET, read-out: LXR beta IP. The procedure:
as §1

What is called Emax is the size of the effect at its maximum, as opposed to the concentration needed. `CC(C)(C)OC(=O)N1CCN(c2ncc(-c3ccc(C(N)=O)c(Cl)c3)cc2C#N)CC1` [Example 5-2, tert-butyl 4-[5-(4-carbamoyl-3-chlorophenyl)-3-cyanopyridin-2-yl]piperazine-1-carboxylate]: in assay [1], the maximal response (Emax) was determined as 66% and the pEC50 was 5.69. In addition, in assay [2], the Emax amounted to 94% and the pEC50 was 7.03.

For `Cc1noc(C)c1CC(=O)N1CCN(c2ncc(-c3ccc(C(=O)N(C)C)c(Cl)c3)cc2C#N)CC1` [Example 2-14, 2-chloro-4-(5-cyano-6-{4-[(3,5-dimethylisoxazol-4-yl)acetyl]piperazin-1-yl}pyridin-3-yl)-N,N-dimethylbenzamide], in assay [1], the maximal effect (Emax) was found to be 23% and the “LXR alpha IP (nM)” value is “No IP”. Besides, in assay [2], the maximal effect (Emax) is 77% and the pEC50 is 5.87.

In the case of `CN(CCn1cccn1)C(=O)c1ccc(-c2cnc(N3CCN(C(=O)OC(C)(C)C)CC3)c(C#N)c2)cc1Cl` [Example 5-23, tert-butyl 4-[5-(3-chloro-4-{methyl[2-(1H-pyrazol-1-yl)ethyl]carbamoyl}phenyl)-3-cyanopyridin-2-yl]piperazine-1-carboxylate], in assay [1], the Emax came out at 46% and the pEC50 was 4.71. Further, in assay [2], the Emax was 74% and the pEC50 was 6.55.

Regarding `CN(C)C(=O)c1ccc(-c2ccc(N3CC4CCC3CN4C(=O)OC(C)(C)C)cc2)cc1Cl` (centres unmarked) [Example 8-4, tert-butyl 5-[3′-chloro-4′-(dimethylcarbamoyl)biphenyl-4-yl]-2,5-diazabicyclo[2.2.2]octane-2-carboxylate], in assay [1], the Emax came out at 73% and the pEC50 is 5.82. Moreover, in assay [2], the maximal effect (Emax) was found to be 78% and the pEC50 was 7.49.

On to `CN(C)C(=O)c1ccc(-c2cnc(N3CCN(S(=O)(=O)c4c(F)cccc4F)CC3)c(C#N)c2)cc1Cl` [Example 1-17, 2-chloro-4-(5-cyano-6-{4-[(2,6-difluorophenyl)sulfonyl]piperazin-1-yl}pyridin-3-yl)-N,N-dimethylbenzamide], for which, in assay [1], the Emax stood at 36% and the pEC50 is 5.32. For the same compound, in assay [2], the Emax was found to be 98% and the pEC50 is 7.37.

`CN(C)C(=O)c1c(Cl)cc(-c2cnc(N3CC4CCC(C3)N4C(=O)OC(C)(C)C)c(C#N)c2)cc1Cl` [Example 7-3, tert-butyl 3-(3-cyano-5-(3,5-dichloro-4-(dimethylcarbamoyl)phenyl)pyridin-2-yl)-3,8-diazabicyclo[3.2.1]octane-8-carboxylate]: in assay [1], the Emax was 21% and the pEC50 was 6.82. Also, in assay [2], the Emax came out at 67% and the pEC50 was 7.89.

For `CN(C)C(=O)c1ccc(-c2cnc(N3CCN(C(=O)C4CCCCO4)CC3)c(C#N)c2)cc1Cl` (centres unmarked) [Example 2-6, 2-chloro-4-{5-cyano-6-[4-(tetrahydro-2H-pyran-2-ylcarbonyl)piperazin-1-yl]pyridin-3-yl}-N,N-dimethylbenzamide], in assay [1], the maximal response (Emax) was determined as 16% and the “LXR alpha IP (nM)” value is “No IP”. In addition, in assay [2], the maximal response (Emax) came to 49% and the pEC50 was 5.81.

For `CC(C)(C)OC(=O)N1CCN(c2ncc(-c3ccc(C(=O)N4CCOCC4)c(Cl)c3)cc2C#N)CC1` [Example 5-14, tert-butyl 4-{5-[3-chloro-4-(morpholin-4-ylcarbonyl)phenyl]-3-cyanopyridin-2-yl}piperazine-1-carboxylate], the maximal effect (Emax) in assay [1] came to 38%; in assay [2], 63%. For the same compound, the figures for the pEC50 in assay [1] and in assay [2] were 4.90 and 6.48, respectively.

On to `CN(C)C(=O)c1ccc(-c2cnc(N3CCN(S(=O)(=O)c4c(Cl)cccc4C(F)(F)F)CC3)c(C#N)c2)cc1Cl` [Example 1-18, 2-chloro-4-[6-(4-{[2-chloro-6-(trifluoromethyl)phenyl]sulfonyl}piperazin-1-yl)-5-cyanopyridin-3-yl]-N,N-dimethylbenzamide], for which, in assay [1], the Emax worked out at 62% and the pEC50 was 5.78. Also, in assay [2], the maximal response (Emax) came out at 126% and the pEC50 was 6.82.

For `CC(C)(C)OC(=O)N1CCN(c2ncc(-c3ccc(C(=O)NCc4ncc[nH]4)c(Cl)c3)cc2C#N)CC1` [Example 5-16, tert-butyl 4-(5-{3-chloro-4-[(1H-imidazol-2-ylmethyl)carbamoyl]phenyl}-3-cyanopyridin-2-yl)piperazine-1-carboxylate], in assay [1], the Emax stood at 68% and the pEC50 was 5.84. Further, in assay [2], the Emax was 91% and the pEC50 is 7.37.

As to `CN(C)C(=O)c1ccc(-c2cc(Cl)c(N3CCN(C(=O)c4ccccc4Cl)CC3)c(Cl)c2)cc1Cl` [Example 4-6, 3,3′,5′-trichloro-4′-{4-[(2-chlorophenyl)carbonyl]piperazin-1-yl}-N,N-dimethylbiphenyl-4-carboxamide], in assay [1], the Emax was found to be 16% and the pEC50 was 5.80. Besides, in assay [2], the Emax came to 39% and the pEC50 was 6.73.

`COc1cc(-c2cnc(N3CCN(C(=O)OC(C)(C)C)CC3)c(C#N)c2)ccc1C(=O)N(C)C` [Example 8-2, tert-butyl 4-{3-cyano-5-[4-(dimethylcarbamoyl)-3-methoxyphenyl]pyridin-2-yl}piperazine-1-carboxylate]: in assay [1], the Emax stood at 28% and the pEC50 was 4.59. In assay [2], the Emax is 73% and the pEC50 was 6.07.

`CN(C)C(=O)c1ccc(-c2cnc(N3CCN(S(=O)(=O)c4cccs4)CC3)c(C#N)c2)cc1Cl` [Example 1-6, 2-chloro-4-{5-cyano-6-[4-(thiophen-2-ylsulfonyl)piperazin-1-yl]pyridin-3-yl}-N,N-dimethylbenzamide]: in assay [1], the Emax came out at 23% and the pEC50 was 5.16. In assay [2], the Emax was determined as 77% and the pEC50 was 7.51.

For `CN(C)C(=O)c1ccc(-c2cnc(N3CCN(C(=O)Cc4ccccc4)CC3)c(C#N)c2)cc1Cl` [Example 2-7], in assay [1], the Emax came out at 54% and the pEC50 is 5.17. In assay [2], the Emax was 102% and the pEC50 was 7.30.

For the compound `CN(C)C(=O)c1ccc(-c2ccc(N3CCN(C(=O)c4ccccc4C(F)(F)F)CC3)cc2)cc1Cl` [Example 4-17, 3-chloro-N,N-dimethyl-4′-(4-{[2-(trifluoromethyl)phenyl]carbonyl}piperazin-1-yl)biphenyl-4-carboxamide], in assay [1], the maximum response (Emax) stood at 9% and the “LXR alpha IP (nM)” value is on record as “No IP”. Also, in assay [2], the Emax stood at 80% and the pEC50 is 5.86.

As for `Cc1cccc(COC(=O)N2CCN(c3ncc(-c4ccc(C(=O)N(C)C)c(Cl)c4)cc3C#N)CC2)c1` [Example 3-5, 3-methylbenzyl 4-{5-[3-chloro-4-(dimethylcarbamoyl)phenyl]-3-cyanopyridin-2-yl}piperazine-1-carboxylate], in assay [1], the maximal effect (Emax) was 57% and the pEC50 is 5.87. Moreover, in assay [2], the Emax stood at 97% and the pEC50 is 7.25.

`CCC(C)(C)C(=O)N1CCN(c2ncc(-c3ccc(C(=O)N(C)C)c(Cl)c3)cc2C#N)CC1` [Example 2-5, 2-chloro-4-{5-cyano-6-[4-(2,2-dimethylbutanoyl)piperazin-1-yl]pyridin-3-yl}-N,N-dimethylbenzamide]: in assay [1], the maximum response (Emax) came to 62% and the pEC50 is 4.95. Besides, in assay [2], the maximum response (Emax) amounted to 97% and the pEC50 is 6.96.

Consider `CN(C)C(=O)c1ccc(-c2cnc(N3CCN(C(=O)c4c(F)cccc4Cl)CC3)c(C#N)c2)cc1Cl` [Example 2-21, 2-chloro-4-(6-{4-[(2-chloro-6-fluorophenyl)carbonyl]piperazin-1-yl}-5-cyanopyridin-3-yl)-N,N-dimethylbenzamide], for which, in assay [1], the Emax worked out at 41% and the pEC50 is 5.20. In assay [2], the Emax was 59% and the pEC50 was 6.83.

Take `CN(C)C(=O)c1ccc(-c2cnc(N3CC4CCC(C3)N4C(=O)OC(C)(C)C)c(C#N)c2)cc1Cl` [Example 8-7, tert-butyl 3-{5-[3-chloro-4-(dimethylcarbamoyl)phenyl]-3-cyanopyridin-2-yl}-3,8-diazabicyclo[3.2.1]octane-8-carboxylate]: the Emax in assay [1] turned out to be 52%; in assay [2] it was 71%. In addition, the pEC50 in assay [1] is 5.79; in assay [2] it was 7.51.

Regarding `Cc1cc(CC(=O)N2CCN(c3ncc(-c4ccc(C(=O)N(C)C)c(Cl)c4)cc3C#N)CC2)on1` [Example 2-8, 2-chloro-4-(5-cyano-6-{4-[(3-methylisoxazol-5-yl)acetyl]piperazin-1-yl}pyridin-3-yl)-N,N-dimethylbenzamide], in assay [1], the Emax was 5% and the “LXR alpha IP (nM)” value is reported as “No IP”. Moreover, in assay [2], the Emax was 46% and the pEC50 was 5.38.
